One assay has as its target T1, Human GPR120 short form (Homo sapiens, UniProt Q5NUL3).
T1 construct: expressed in transfected cells
T1 sequence (Q5NUL3 1-361): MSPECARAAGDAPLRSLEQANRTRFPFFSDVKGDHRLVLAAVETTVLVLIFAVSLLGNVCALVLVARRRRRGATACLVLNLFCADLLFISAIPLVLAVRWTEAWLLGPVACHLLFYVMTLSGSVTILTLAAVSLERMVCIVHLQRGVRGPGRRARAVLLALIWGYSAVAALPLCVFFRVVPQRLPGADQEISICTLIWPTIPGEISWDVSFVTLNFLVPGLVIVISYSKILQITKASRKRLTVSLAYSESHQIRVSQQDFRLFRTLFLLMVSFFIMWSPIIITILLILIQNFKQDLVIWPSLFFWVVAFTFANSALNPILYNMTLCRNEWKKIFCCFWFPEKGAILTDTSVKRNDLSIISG
In words: Human GPR120 calcium flux assay, Procedure Calcium A. Type of assay: cell-based. The following applies: HEK-293 cells, FLIPR, 2500 cells/well; read-out: GPR120 Ca2+ Assay A EC50. The procedure: These cells are first loaded with the Ca^+2 sensitive dye, Fluo-4 NR. Upon stimulation, intracellular released Ca^+2 can bind to the dye and alter its fluorescence intensity. This increase in fluorescence signal, and thus the flux in intracellular [Ca^2+], is detected and quantitated by fluorescence imaging using a FLIPR reader. The effect of the agonist is measured as a function of concentration and used to calculate an EC50 based upon a response curve.
In this procedure 2500 cells/well were employed.
A Human GPR120 clone (Genbank accession number NM_001195755.1) was placed into the pcDNA3.1 mammalian expression vector carrying the neomycin resistance gene. A stable mammalian cell was generated by placing the above clone into a HEK293 background. […] Cells were split 2 times a week to keep the cells in the log-phase growth.
In preparation for the assay, HEK cells stably transfected with Human GPR120 (2.5K cells per well in 25 uL growth medium) were seeded into 384-well plates and then incubated overnight (37° C., 5% CO2). The next day, the media was changed to 20 μL assay buffer and the cell starved for 1 h at 37° C. The dye loading solution (2× dye) was prepared using 10 mL assay buffer, 100 μL of 250 mM probenecid, 1 bottle of Component A, and 20 μl of dye in DMSO. Twenty μL of the 2× dye loading buffer was then added to each well. The plates were incubated at 37° C. for 30 min, then at room temperature for an additional 15 minutes, before performing the assay on FLIPR.
The assay was performed on a FLIPR plate reader using the following parameters. Baseline was read for 10 seconds at 1 sec intervals. The program was set to transfer 10 μL of ligand from compound plate to cell plate after baseline reading. Aspiration was executed at: 10 μL/sec speed, 4.6 μL height; Dispensing was executed at: 30 μL/sec speed, 45 μL height. After compound addition, each well was read for 300 sec, with measurements collected at 1 sec intervals.
The kinetic data from the FLIPR was based upon a 5 minute window for data collection. The fluorescence of each sample well was used for individual calculations of a normalized RFU value, which was defined as maximum response minus the minimum response. […] The Fitting Equation was: Y=Bottom+(Top-Bottom)/(1+10^((Log EC50−X)*HillSlope)), where X is the log of the concentration and Y is the response.
Background: Calcium assays in cells follow changes in intracellular calcium, usually with a dye or a luminescent sensor.

In assay [1] the target is T2, short form of the GPR120 receptor (Homo sapiens, UniProt Q5NUL3).
T2 construct: host or cells: PathHunter CHO-K1 GPR120S β-Arrestin Cell Line
T2 sequence (Q5NUL3 1-361): T1 sequence (Q5NUL3 1-361)
Kind of assay: Human GPR120 DiscoveRx PathHunter beta-arrestin assay, Procedure β-arrestin B. It is filed as cell-based. To be noted: PathHunter CHO-K1 GPR120S β-Arrestin cells, 5000 cells/well; read-out: hGPR120 β-arrestin B EC50. From the text:
The binding of an agonist (medium/long chain fatty acids or small molecule agonists) to the G-protein-coupled receptor GPR120 activates phospholipase C, leading to release of intracellular Ca^+2 through the generation of inositol 1,4,5-trisphosphate (InsP3 or IP3). GPR120 activation can also trigger intracellular signaling via recruitment of Beta-Arrestin. In the present method, agonist-induced activation of the human GPR120 receptor is monitored through the use of PathHunter CHO-K1 GPR120 Beta-Arrestin Cell Line engineered by DiscoveRx, as detailed below. The cell lines are designed to co-express both the ProLink/Enzyme Donor (PK)-tagged GPCR and the Enzyme […] (EA)-tagged Beta-Arrestin fusion proteins. Upon GPR120 receptor stimulation/activation, the EA-tagged Beta-Arrestin portion is translocated to the tagged receptor, where the two enzyme fragments are brought within close proximity. Under these conditions, these fragments can interact and form an active Beta-gal enzyme complex through Enzyme Fragment Complementation (EFC). This active Beta-gal complex can enzymatically hydrolyse the substrate to produce a detectable light signal; therefore, activation as a function of agonist concentration can be expressed as an EC50 value to determine relative compound activities. This in vitro assay therefore serves to assess compound agonist activity of the GPR120.
In Procedure β-arrestin B the cells used were PathHunter CHO-K1 GPR120S β-Arrestin Cell Line, expressing the short form of the GPR120 receptor (Accession #NM 181745), with 5000 cells/well.
The selected CHO-K1 GPR120 β-Arrestin cells were cultured in Ham's F12 media supplemented with 10% fetal bovine serum (FBS), 1% Glutamine, 1×p/s, 800 μg/mL G418 and 300 μg/mL Hygromycin B (for selection). Cell stocks were maintained and grown in a sub-confluent state using standard cell culture procedures. The day before the experiment, the cells were harvested with non-enzymatic cell dissociation buffer and re-suspended in complete growth media at the desired concentration. A Corning 384-plate was then seeded with the proper number of cells in a volume of 25 μL, per well. The seeded plates were incubated overnight at 37° C.
On the day of the experiment, the Assay Buffer containing (a) HBSS with Ca^++ and Mg^++, (b) 20 mM HEPES, and (c) 0.1% BSA stabilizer (pH 7.4) was prepared. The growth medium was gently removed from the cell plates and 20 μL of Assay Buffer added to each well. The plate was then incubated at 37° C. for 60 min. Test compounds were serially diluted in Assay Buffer to desired concentrations (more particularly to one or more of the following μM concentrations: 25, 12.5, 6.25, 3.125, 1.5625, 0.78125, 0.390625, 0.1953125, 0.09765625, 0.048828125, 0.024414063, 0.012207031). Five μL of compound dilution was then added to each well and the plate incubated at 37° C. for 90 min. The detection reagents were prepared according to the manufacture's instruction. Twelve μL of the detection reagents were added to each well and the plate incubated at room temperature for 60 min.
The plates were read on an EnVision instrument, using Protocol name: Luminescence, Plate type: 384 Costar, Measurement height: 3 mm, Measurement time: 1 s, Aperture: 384 Plate aperture. The % activity relative to the positive control was calculated using the following equation:
The % Activity values were plotted versus the concentration of test compound and fitted to a sigmoidal dose-response curve with a Hill slope=1 (fixed value) using nonlinear regression with GraphPad Prism 5.0 to calculate the EC50 values. The Fitting Equation was: Y=Bottom+(Top-Bottom)/(1+10^((Log EC50−X)*HillSlope)), where X is the log of the concentration and Y is the response.

Broadly, the EC50 is the concentration giving half of the maximal effect.

`O=C(O)CCc1cc(F)c(OCc2sc(Cl)cc2-c2ccc(Cl)cc2)c(F)c1` [Cpd 2, 3-(4-{[5-Chloro-3-(4-chlorophenyl)thiophen-2-yl]methoxy}-3,5-difluorophenyl)propanoic acid]: the EC50 came out at 0.03 µM on Human GPR120 short form and 0.068 µM in assay [1].
On the same counts, the results for `Cc1sc(-c2ccccc2)c(COc2ccc(CCC(=O)O)c(C)c2C)c1C(F)(F)F` [Cpd 33, 3-(2,3-Dimethyl-4-{[5-methyl-2-phenyl-4-(trifluoromethyl)thiophen-3-yl]methoxy}phenyl)propanoic acid] are 0.05 µM and 0.322 µM.
In the case of `OCCCc1cc(F)c(OCc2c(Cl)nsc2-c2ccc(Cl)cc2)c(F)c1` [Cpd 78, 3-(4-{[3-Chloro-5-(4-chlorophenyl)isothiazol-4-yl]methoxy}-3,5-difluorophenyl)propan-1-ol], the EC50 on Human GPR120 short form was determined as 0.05 µM; in assay [1], 0.031 µM.

These data come from patent publication US10118922B2 (Janssen Pharmaceutica NV, priority 2013, dated 2018).
